Where a SMILES comes first, the peptide text is derived from it.
Legend:
[1] = target: Tryptase, from human lung; assay: Enzymatic assay, tryptase; settings: for IC50: read-out: Tryptase IC50
[2] = target: Trypsin, from human pancreas (Homo sapiens, UniProt P07477); assay: Enzymatic assay, trypsin
[3] = target: T1, CathepsinG, from human neutrophils (Homo sapiens, UniProt P08311); assay: Enzymatic assay, cathepsin G; settings: Cathepsin G IC50
T1 sequence (P08311 21-244): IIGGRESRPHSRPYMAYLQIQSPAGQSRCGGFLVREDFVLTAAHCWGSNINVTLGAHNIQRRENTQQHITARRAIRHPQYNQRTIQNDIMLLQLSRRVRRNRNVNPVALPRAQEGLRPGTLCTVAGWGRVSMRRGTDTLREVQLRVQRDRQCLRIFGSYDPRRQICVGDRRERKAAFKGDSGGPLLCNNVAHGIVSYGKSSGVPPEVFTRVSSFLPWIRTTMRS

[4] = target: T2, Elastase from human neutrophils (Homo sapiens, UniProt P08246); assay: Enzymatic assay, elastase
T2 sequence (P08246 30-267): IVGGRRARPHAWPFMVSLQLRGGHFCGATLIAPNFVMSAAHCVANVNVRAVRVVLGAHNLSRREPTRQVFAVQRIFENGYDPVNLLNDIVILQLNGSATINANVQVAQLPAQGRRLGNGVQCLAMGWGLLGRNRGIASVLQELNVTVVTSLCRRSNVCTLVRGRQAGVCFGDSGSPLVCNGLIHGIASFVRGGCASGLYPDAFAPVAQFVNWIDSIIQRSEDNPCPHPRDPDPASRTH

Structure (SMILES)	IC50 [1]	IC50 [2]	IC50 [3]	Tryptase at 100 μM % ([1]; at 100 μM)	IC50 ([4]; Elastase IC50)	Elastase at 100 μM % ([4]; at 100 μM (stated in cell instead of IC50))	Trypsin at 100 μM % [2]
CC[C@H](C)[C@@H]1NC(=O)[C@@H]2CCCN2C(=O)[C@H]2CCCN2C(=O)[C@H](CCCNC(=N)N)NC(=O)[C@@H]2CSSC[C@H](NC1=O)C(=O)N[C@@H]([C@@H](C)O)C(=O)N[C@@H](CCCCN)C(=O)N[C@@H](CO)C(=O)N[C@@H](CC(C)C)C(=O)N1CCC[C@H]1C(=O)N1CCC[C@H]1C(=O)N[C@@H](CCC(N)=O)C(=O)N2 [Ex. 188] (HELM PEPTIDE1{I.C.T.K.S.L.P.P.Q.C.R.[dP].P}$PEPTIDE1,PEPTIDE1,2:R3-10:R3|PEPTIDE1,PEPTIDE1,1:R1-13:R2$$$V2.0)	< 0.1 µM	0.034 µM	0.105 µM				
CC[C@H](C)[C@@H]1NC(=O)[C@@H]2CCCN2C(=O)[C@H]2CCCN2C(=O)[C@H](CCCCN)NC(=O)[C@@H]2CSSC[C@H](NC1=O)C(=O)N[C@@H]([C@@H](C)O)C(=O)N[C@@H](CCCCN)C(=O)N[C@@H](CO)C(=O)N[C@@H](CC(C)C)C(=O)N1CCC[C@H]1C(=O)N1CCC[C@H]1C(=O)N[C@@H](CCCNC(=N)N)C(=O)N2 [Ex. 190] (HELM PEPTIDE1{I.C.T.K.S.L.P.P.R.C.K.[dP].P}$PEPTIDE1,PEPTIDE1,2:R3-10:R3|PEPTIDE1,PEPTIDE1,1:R1-13:R2$$$V2.0)	< 0.1 µM	0.172 µM	1.5 µM				
CC[C@H](C)[C@@H]1NC(=O)[C@@H]2CCCN2C(=O)[C@H]2CCCN2C(=O)[C@H](CCCNC(=N)N)NC(=O)[C@@H]2CSSC[C@H](NC1=O)C(=O)N[C@@H]([C@@H](C)O)C(=O)N[C@@H](CCCCN)C(=O)N[C@@H](CO)C(=O)N[C@@H](CC(C)C)C(=O)N1CCC[C@H]1C(=O)N1CCC[C@H]1C(=O)N[C@@H](Cc1c[nH]cn1)C(=O)N2 [Ex. 187] (HELM PEPTIDE1{I.C.T.K.S.L.P.P.H.C.R.[dP].P}$PEPTIDE1,PEPTIDE1,2:R3-10:R3|PEPTIDE1,PEPTIDE1,1:R1-13:R2$$$V2.0)	< 0.1 µM	0.039 µM	0.158 µM				
CC[C@H](C)[C@@H]1NC(=O)[C@@H]2CCCN2C(=O)[C@H]2CCCN2C(=O)[C@H](CCCNC(=N)N)NC(=O)[C@@H]2CSSC[C@H](NC1=O)C(=O)N[C@@H]([C@@H](C)O)C(=O)N[C@@H](CCCCN)C(=O)N[C@@H](CO)C(=O)N[C@@H](Cc1ccc(O)cc1)C(=O)N1CCC[C@H]1C(=O)N1CCC[C@H]1C(=O)N[C@@H]([C@@H](C)CC)C(=O)N2 [Ex. 183] (HELM PEPTIDE1{I.C.T.K.S.Y.P.P.I.C.R.[dP].P}$PEPTIDE1,PEPTIDE1,2:R3-10:R3|PEPTIDE1,PEPTIDE1,1:R1-13:R2$$$V2.0)	0.025 µM	0.146 µM	0.243 µM				
CC[C@H](C)[C@@H]1NC(=O)[C@@H]2CCCN2C(=O)[C@H]2CCCN2C(=O)[C@H](CCCNC(=N)N)NC(=O)[C@@H]2CSSC[C@H](NC1=O)C(=O)N[C@@H]([C@@H](C)O)C(=O)N[C@@H](CCCCN)C(=O)N[C@@H](CO)C(=O)N[C@@H](CC(C)C)C(=O)N1CCC[C@H]1C(=O)N1CCC[C@H]1C(=O)N[C@@H]([C@@H](C)CC)C(=O)N2 [Ex. 180] (HELM PEPTIDE1{I.C.T.K.S.L.P.P.I.C.R.[dP].P}$PEPTIDE1,PEPTIDE1,2:R3-10:R3|PEPTIDE1,PEPTIDE1,1:R1-13:R2$$$V2.0)	< 0.1 µM	0.06 µM	0.12 µM				
CC[C@H](C)[C@@H]1NC(=O)[C@@H]2CCCN2C(=O)[C@@H]2CCCN2C(=O)[C@H](CC(=O)O)NC(=O)[C@H](CO)NC(=O)[C@H](CCCCN)NC(=O)[C@H]([C@@H](C)O)NC(=O)[C@@H]2CSSC[C@H](NC1=O)C(=O)N[C@@H](CO)C(=O)N[C@H](CC(=O)O)C(=O)N1CCC[C@H]1C(=O)N[C@@H](Cc1ccccc1)C(=O)N2 [Ex. 46] (HELM PEPTIDE1{F.C.T.K.S.D.P.P.I.C.S.[dD].P}$PEPTIDE1,PEPTIDE1,2:R3-10:R3|PEPTIDE1,PEPTIDE1,1:R1-13:R2$$$V2.0)				44.1%			
CC(C)C[C@@H]1NC(=O)[C@H](CO)NC(=O)[C@H](CCCCN)NC(=O)[C@H]([C@@H](C)O)NC(=O)[C@@H]2CSSC[C@H](NC(=O)[C@H](CCCCN)NC(=O)[C@@H]3CCCN3C(=O)[C@@H]3CCCN3C1=O)C(=O)N[C@@H](Cc1ccc(O)cc1)C(=O)N1CCC[C@@H]1C(=O)N1CCC[C@H]1C(=O)N[C@@H](CCCNC(=N)N)C(=O)N2 [Ex. 196] (HELM PEPTIDE1{R.C.T.K.S.L.P.P.K.C.Y.[dP].P}$PEPTIDE1,PEPTIDE1,2:R3-10:R3|PEPTIDE1,PEPTIDE1,1:R1-13:R2$$$V2.0)	0.052 µM	0.07 µM	2.17 µM				
CC[C@H](C)[C@@H]1NC(=O)[C@@H]2CCCN2C(=O)[C@H]2CCCN2C(=O)[C@H](CCCNC(=N)N)NC(=O)[C@@H]2CSSC[C@H](NC1=O)C(=O)N[C@@H]([C@@H](C)O)C(=O)N[C@@H](CCCCN)C(=O)N[C@@H](CO)C(=O)N[C@@H](CC(C)C)C(=O)N1CCC[C@H]1C(=O)N1CCC[C@H]1C(=O)N[C@@H](CCCNC(=N)N)C(=O)N2 [Ex. 185] (HELM PEPTIDE1{I.C.T.K.S.L.P.P.R.C.R.[dP].P}$PEPTIDE1,PEPTIDE1,2:R3-10:R3|PEPTIDE1,PEPTIDE1,1:R1-13:R2$$$V2.0)	0.014 µM	0.126 µM	0.514 µM				
CCCC[C@@H]1NC(=O)[C@@H]2CCCN2C(=O)[C@H]2CCCN2C(=O)[C@H](CCCNC(=N)N)NC(=O)[C@@H]2CSSC[C@H](NC1=O)C(=O)N[C@@H]([C@@H](C)O)C(=O)N[C@@H](CCCCN)C(=O)N[C@@H](CO)C(=O)N[C@@H](CC(C)C)C(=O)N1CCC[C@H]1C(=O)N1CCC[C@H]1C(=O)N[C@@H](CCCCN)C(=O)N2 [Ex. 192] (HELM PEPTIDE1{[Nle].C.T.K.S.L.P.P.K.C.R.[dP].P}$PEPTIDE1,PEPTIDE1,2:R3-10:R3|PEPTIDE1,PEPTIDE1,1:R1-13:R2$$$V2.0)	0.016 µM	0.072 µM	0.65 µM				
CC(C)C[C@@H]1NC(=O)[C@H](CO)NC(=O)[C@H](CCCCN)NC(=O)[C@H]([C@@H](C)O)NC(=O)[C@@H]2CSSC[C@H](NC(=O)[C@H](CCCCN)NC(=O)[C@@H]3CCCN3C(=O)[C@@H]3CCCN3C1=O)C(=O)N[C@@H](CCCNC(=N)N)C(=O)N1CCC[C@@H]1C(=O)N1CCC[C@H]1C(=O)N[C@@H](Cc1ccc(O)cc1)C(=O)N2 [Ex. 194] (HELM PEPTIDE1{Y.C.T.K.S.L.P.P.K.C.R.[dP].P}$PEPTIDE1,PEPTIDE1,2:R3-10:R3|PEPTIDE1,PEPTIDE1,1:R1-13:R2$$$V2.0)	0.009 µM	0.431 µM	1.57 µM				
CC[C@H](C)[C@@H]1NC(=O)[C@@H]2CCCN2C(=O)[C@@H]2CCCN2C(=O)[C@H](CC(=O)O)NC(=O)[C@H](CO)NC(=O)[C@H](CCCCN)NC(=O)[C@H]([C@@H](C)O)NC(=O)[C@@H]2CSSC[C@H](NC1=O)C(=O)N[C@@H](CO)C(=O)N1CCC[C@@H]1C(=O)N[C@@H](CC(C)C)C(=O)N[C@@H](Cc1ccccc1)C(=O)N2 [Ex. 51] (HELM PEPTIDE1{C.S.[dP].L.F.C.T.K.S.D.P.P.I}$PEPTIDE1,PEPTIDE1,1:R3-6:R3|PEPTIDE1,PEPTIDE1,1:R1-13:R2$$$V2.0)			0.091 µM		> 100 µM		
CC[C@H](C)[C@@H]1NC(=O)[C@@H]2CCCN2C(=O)[C@@H]2CCCN2C(=O)[C@H](CC(=O)O)NC(=O)[C@H](CO)NC(=O)[C@H](CCCCN)NC(=O)[C@H]([C@@H](C)O)NC(=O)[C@@H]2CSSC[C@H](NC1=O)C(=O)N[C@@H](CO)C(=O)N1CCC[C@@H]1C(=O)N1CCC[C@H]1C(=O)N[C@@H](Cc1ccc(N)cc1)C(=O)N2 [Ex. 9] (HELM PEPTIDE1{[Nc1ccc(C[C@H](N[*:1])C(=O)[*:2])cc1].C.T.K.S.D.P.P.I.C.S.[dP].P}$PEPTIDE1,PEPTIDE1,2:R3-10:R3|PEPTIDE1,PEPTIDE1,1:R1-13:R2$$$V2.0)			0.105 µM			4.1 at %	88.1%
CC[C@H](C)[C@@H]1NC(=O)[C@@H]2CCCN2C(=O)[C@@H]2CCCN2C(=O)[C@H](CC(=O)O)NC(=O)[C@H](CO)NC(=O)[C@H](CCCCN)NC(=O)[C@H]([C@@H](C)O)NC(=O)[C@@H]2CSSC[C@H](NC1=O)C(=O)N[C@@H](CO)C(=O)N1CCC[C@@H]1C(=O)N[C@@H](CC(C)C)C(=O)N[C@@H](Cc1ccccc1)C(=O)N2 [Ex. 74] (HELM PEPTIDE1{C.S.[dP].L.F.C.T.K.S.D.P.P.I}$PEPTIDE1,PEPTIDE1,1:R3-6:R3|PEPTIDE1,PEPTIDE1,1:R1-13:R2$$$V2.0)							86%
CC[C@H](C)[C@@H]1NC(=O)[C@@H]2CCCN2C(=O)[C@@H]2CCCN2C(=O)[C@H](CC(=O)O)NC(=O)[C@H](CO)NC(=O)[C@H](CCCCN)NC(=O)[C@H]([C@@H](C)O)NC(=O)[C@@H]2CSSC[C@H](NC1=O)C(=O)N[C@@H](CO)C(=O)N1CCC[C@@H]1C(=O)N1CCC[C@H]1C(=O)N[C@@H](Cc1cccc3ccccc13)C(=O)N2 [Ex. 62] (HELM PEPTIDE1{[O=C([C@H](Cc1cccc2ccccc12)N[*:1])[*:2]].C.T.K.S.D.P.P.I.C.S.[dP].P}$PEPTIDE1,PEPTIDE1,2:R3-10:R3|PEPTIDE1,PEPTIDE1,1:R1-13:R2$$$V2.0)			0.069 µM				
